Read-outs that look alike come from different tables or passages of the source.
Columns and labels:
[1] = Pharmacokinetic study in rats after oral administration of cinobufacini capsule (UPLC-MS/MS of plasma); format: in vivo, rat; conditions: for AUC(0-inf) / AUC(0-t) / Cmax / Tmax / CL/F / MRT last / MRT inf / half-life / Vd/F: male, Sprague-Dawley, in vivo, rat plasma, mean ± SD, n = 6; for CL/F: read-out: CLz/F (converted); for MRT last: read-out: MRT0-t; for MRT inf: read-out: MRT0-∞; for half-life: read-out: T1/2z (converted); for Vd/F: read-out: Vz/F
Outline: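 Male SD rats (200–220 g), fasted 12 h, six per group; cinobufacini capsule given orally at three doses or injection intravenously. Retro-orbital plasma sampled 0.05–10 h, extracted with ethyl acetate plus internal standard, quantified by UPLC-MS/MS (ESI+, MRM); parameters calculated by non-compartmental-style software as mean ± SD.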

[2] = Pharmacokinetic study in rats after intravenous administration of cinobufacini injection (UPLC-MS/MS of plasma); format: in vivo, rat; conditions: for concentrations in most rat plasma samples relative to LLOQ: after intravenous administration of cinobufacini injection, pharmacokinetic parameters could not be calculated; for detection in rat plasma: cinobufacini injection group, intravenous
Description: Male Sprague–Dawley rats (weighing 200–220 g) of SPF grade were offered by Sippr/BK laboratory Animal, Corp., Ltd. (Shanghai, China) and fed in the Laboratory Animal Center of the Shanghai University of Traditional Chinese Medicine. All the rats were kept under environmentally controlled conditions with constant temperature (22–24°C) and humidity (60–65%). The animal experiment program in the present research was approved by the Animal Committee of the Shanghai University of Traditional Chinese Medicine (PZSHUTCM210618012).
An Agilent 1290 liquid chromatographic system includes a G4220A quaternary pump, a G1326C column incubator, a G4226A automatic sampler, and a G1330B degasser. The column temperature was set to 35°C. A measure of 5 µL of samples were separated in an Agilent SB-C18 column (2.1 mm ×50 mm, 1.8 μm) and eluted at 0.3 ml/min, followed by gradient elution with water (0.1% V/V formic acid) (A) and acetonitrile (B) (0–1 min, 20%–20% B; 1–3.5 min, 20%–80% B; 4–4.1 min, 80%-20% B; 4.1–6 min, 20% B). The total run time was 6 minutes.
An Agilent 1290 Infinity series UPLC system was combined with an Agilent 6460 series triple quadrupole mass spectrometer (Agilent Technologies, Santa Clara, CA, United States) to quantify all 13 analytes in an ESI-positive ionization mode. Quantitative analysis was performed in an MRM mode. The mass spectrum conditions were as follows: capillary voltage, 4000V; drying gas (N2), gas flow rate: 10 L/min; sprayer, 30 psi; gas temperature 350°C; The delta EMV (+) 200 V; collision gas (N2); dwell time, 25 ms. Agilent’s MassHunter Workstation software was used for data collection, peak area calculation, and quantitative analysis.
A measure of 50 µL of the plasma sample was mixed with 10 µL of the internal standard solution (345 ng/ml) in a 1.5-ml centrifuge tube and vortexed for 5 min. The samples were extracted by 500 µL of ethyl acetate for 5 min and centrifuged at 4°C for 10 min (18000 rpm). All the supernatants were collected into another 1.5-ml centrifuge tube, dried under a gentle stream of nitrogen at 37°C, and then added with 50 µL of 80% methanol for resolution. The resolution samples were centrifuged at 4°C for 10 min (18000 rpm), and 5 µL supernatant was extracted and injected for analysis.
Twenty-four male Sprague–Dawley rats (weigh 200–220 g) were divided into four groups with six rats in each group randomly, including three capsule groups at three different doses and one injection group. In the instructions for cinobufacini capsule and injection, the clinical dosage for adults is 2 g per 70 kg orally and 20 ml per 70 kg intravenously, converting to rat doses of 180 mg/kg and 1.8 ml/kg, respectively.
In the pre-experiments, we compared cinobufacini capsule of 180 mg/kg (one-time clinical dose) and 900 mg/kg (five times of clinical dose) and Cinobufacini injection of 1.8 ml/kg, but concentrations of some compounds in plasma were too low and difficult to be quantified. […] The experimental rats were led to fast the night and were free to get access to water for 12 h before the pharmacokinetic study. After administration, blood samples (approximately 150 μL) of rats were collected via retro-orbital sinus into heparinized centrifuge tubes at 0.05, 0.083, 0.25, 0.5, 0.75, 1, 2, 4, 6, 8, and 10 h. After centrifugation at 5,000 rpm for 10 min, the plasma was transferred to 1.5-ml polypropylene tubes and stored at −80°C until UPLC-MS/MS analysis.
GraphPad Prism software (version 8.0.2) was used to draw the mean plasma concentration–time curves of all analytes. The pharmacokinetic parameters were calculated by DAS 3.2.8 software. Meanwhile, the pharmacokinetic data on rats were presented as mean ± standard deviation (SD). Differences of pharmacokinetic parameters between groups were analyzed by the t-test using SPSS software (version 26.0). Differences were considered significant statistically when the p-values were <0.05 and very significant statistically when the p-values were <0.01.

[3] = Stability of analytes in rat plasma QC samples under storage conditions; format: physicochemical; conditions: n = 6; for Stability during 24 h at 4°C, RE: post-treatment storage in autosampler; for −80°C for 30 days, RE / Three freeze–thaw cycles, RE: rat plasma; for −80°C for 30 days, RE: long-term; for Three freeze–thaw cycles, RE: −80°C to room temperature
Outline: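 QC samples at low, medium and high levels (n=6) were tested after 24 h in the autosampler at 4 °C, after three freeze–thaw cycles from −80 °C to room temperature, and after 30 days at −80 °C. Concentrations were read from daily calibration curves. Stability was accepted when RE and RSD were within ±15% of nominal.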

[4] = oral cinobufacini capsule 0.9 g/kg (low)
[5] = oral cinobufacini capsule 1.8 g/kg (medium)
[6] = oral cinobufacini capsule 3.6 g/kg (high)
[7] = high QC level (249.58–250.28 ng/ml)
[8] = medium QC level (49.92–50.06 ng/ml)

Row | Compound | AUC(0-inf) [1, 4] | AUC(0-t) [1, 4] | Cmax [1, 4] | Tmax [1, 4] | CL/F [1, 4] | MRT last [1, 4] | MRT inf [1, 4] | half-life [1, 4] | Vd/F [1, 4] | AUC(0-inf) [1, 5] | AUC(0-t) [1, 5] | Cmax [1, 5] | Tmax [1, 5] | CL/F [1, 5] | MRT last [1, 5] | MRT inf [1, 5] | half-life [1, 5] | Vd/F [1, 5] | AUC(0-inf) [1, 6] | AUC(0-t) [1, 6] | further results
1 | C[C@]12CC[C@H](O)C[C@H]1CC[C@@H]1[C@@H]2CC[C@]2(C)[C@@H](c3ccc(=O)oc3)CC[C@]12O [BF, bufalin] | 143 ± 79.4 ng·h/mL | 139 ± 71.9 ng·h/mL | 74.7 ± 30.7 ng/mL | 0.25 h | 26.2 mL/min/kg | 2.04 ± 0.62 h | 2.19 ± 0.9 h | 1.09 ± 0.91 h | 1.81 ± 0.56 L/kg | 317 ± 134 ng·h/mL | 310 ± 131 ng·h/mL | 189 ± 43.2 ng/mL | 0.43 ± 0.12 h | 21.5 mL/min/kg | 1.45 ± 0.24 h | 1.59 ± 0.49 h | 1.2 ± 0.62 h | 2.15 ± 1.21 L/kg | 461 ± 90.4 ng·h/mL | 457 ± 91.2 ng·h/mL | Cmax [1, 6]: 322 ± 55.5 ng/mL; Tmax [1, 6]: 0.46 ± 0.17 h; CL/F [1, 6]: 27.3 mL/min/kg; MRT last [1, 6]: 1.39 ± 0.43 h; MRT inf [1, 6]: 1.49 ± 0.55 h; half-life [1, 6]: 1.27 ± 0.72 h; Vd/F [1, 6]: 3.02 ± 2.01 L/kg; time to reach maximum plasma concentration (Cmax) ([1]; rats, after gavage administration of cinobufacini capsule): ≤ 60 min; concentrations in most rat plasma samples relative to LLOQ [2]: far below the LLOQs; detection in rat plasma [2]: could be detected; Stability during 24 h at 4°C, RE [3, 7]: −8.5%; Stability during 24 h at 4°C, RE ([3]; low QC level (4.99–5.00 ng/ml)): 3.3%; Stability during 24 h at 4°C, RE [3, 8]: −8.6%; −80°C for 30 days, RE [3, 7]: 1.4%; −80°C for 30 days, RE ([3]; low QC level (4.99–5.00 ng/ml)): 8.7%; −80°C for 30 days, RE [3, 8]: −12.6%; Three freeze–thaw cycles, RE [3, 7]: 0.8%; Three freeze–thaw cycles, RE ([3]; low QC level (4.99–5.00 ng/ml)): −7.7%; Three freeze–thaw cycles, RE [3, 8]: −10.1%
2 | C[C@]12CC[C@H](O)C[C@H]1CC[C@@H]1[C@@H]2C(=O)[C@@H](O)[C@]2(C)[C@@H](c3ccc(=O)oc3)CC[C@]12O [PBG, pseudobufarenogin] | 13.8 ± 5.4 ng·h/mL | 13.3 ± 4.42 ng·h/mL | 9.3 ± 3.04 ng/mL | 0.25 h | 33.5 mL/min/kg | 2.4 ± 0.63 h | 2.76 ± 1 h | 1.52 ± 0.98 h | 7.15 ± 2.16 L/kg | 28.6 ± 6.25 ng·h/mL | 28.4 ± 6.26 ng·h/mL | 24.5 ± 7.32 ng/mL | 0.4 ± 0.22 h | 30.8 mL/min/kg | 1.49 ± 0.08 h | 1.54 ± 0.11 h | 1.03 ± 0.61 h | 2.65 ± 1.51 L/kg | 47.7 ± 9.78 ng·h/mL | 47.3 ± 9.4 ng·h/mL | Cmax [1, 6]: 42.8 ± 10.2 ng/mL; Tmax [1, 6]: 0.32 ± 0.12 h; CL/F [1, 6]: 36.7 mL/min/kg; MRT last [1, 6]: 1.47 ± 0.39 h; MRT inf [1, 6]: 1.57 ± 0.39 h; half-life [1, 6]: 1.96 ± 0.67 h; Vd/F [1, 6]: 5.65 ± 1.61 L/kg; concentrations in most rat plasma samples relative to LLOQ [2]: far below the LLOQs; detection in rat plasma [2]: could be detected; Stability during 24 h at 4°C, RE [3, 7]: 10.2%; Stability during 24 h at 4°C, RE ([3]; low QC level (4.99–5.00 ng/ml)): 6.6%; Stability during 24 h at 4°C, RE [3, 8]: 12.0%; −80°C for 30 days, RE [3, 7]: 4.7%; −80°C for 30 days, RE ([3]; low QC level (4.99–5.00 ng/ml)): 8.3%; −80°C for 30 days, RE [3, 8]: 7.5%; Three freeze–thaw cycles, RE [3, 7]: 7.7%; Three freeze–thaw cycles, RE ([3]; low QC level (4.99–5.00 ng/ml)): 4.4%; Three freeze–thaw cycles, RE [3, 8]: 13.3%
